Results from publication PMC7887271, “Fast acting allosteric phosphofructokinase inhibitors block trypanosome glycolysis and cure acute African trypanosomiasis in mice” (Nature Communications, 2021).
Entries after “also recorded” stand apart in the source; their conditions may differ.

Target: T1, TbPFK (Trypanosoma brucei brucei, UniProt O15648)
T1 construct: made in house; host or cells: Escherichia coli C41 (pET28a, codon optimised gene)
T1 sequence (O15648 1-487): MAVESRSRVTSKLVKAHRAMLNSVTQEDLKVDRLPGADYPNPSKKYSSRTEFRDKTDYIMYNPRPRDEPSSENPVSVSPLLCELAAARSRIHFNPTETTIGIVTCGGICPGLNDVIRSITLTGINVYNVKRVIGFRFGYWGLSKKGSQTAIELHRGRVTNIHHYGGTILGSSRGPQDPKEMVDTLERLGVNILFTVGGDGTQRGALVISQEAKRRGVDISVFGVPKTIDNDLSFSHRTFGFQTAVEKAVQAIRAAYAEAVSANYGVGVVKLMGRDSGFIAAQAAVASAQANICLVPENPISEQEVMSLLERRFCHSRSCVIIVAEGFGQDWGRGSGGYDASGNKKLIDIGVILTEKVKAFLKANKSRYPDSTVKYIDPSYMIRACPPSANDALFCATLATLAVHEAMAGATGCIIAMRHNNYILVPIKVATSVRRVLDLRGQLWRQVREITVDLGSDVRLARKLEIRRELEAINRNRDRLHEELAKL
Test: PYK/LDH linked enzyme assay to determine inhibitor mode of action
Assay type: biochemical
Procedure: TbPFK inhibition was studied using an enzyme assay, in which production of ADP by TbPFK was coupled to the reactions of pyruvate kinase and lactate dehydrogenase: the conversion of pyruvate to lactate and NADH to NAD^+, is monitored by reduction of UV absorbance at 340 nm.
Parasite enzyme kinetic data were measured using N-terminally His6-tagged TbPFK expressed in Escherichia coli C41 cells, using a codon optimised gene inserted in a pET28a vector (Supplementary Methods 1). Recombinant human PFKs were expressed in PFK-deficient Saccharomyces cerevisiae. PFK enzyme inhibition was measured using an ADP-Glo^TM assay (Promega) in a 96-well plate format (Supplementary Methods 2.1), using a Spectramax© M5 Multimode Plate Reader to measure luminescence values which were converted to ADP concentrations. IC50 values were determined using a sigmoidal curve fitting algorithm in Kaleidagraph 4 (Supplementary Fig. 1). Mode of action studies were carried out using a linked enzyme assay coupling the forward reaction of TbPFK to the M1 isoform of human pyruvate kinase followed by lactate dehydrogenase. The change in UV absorbance at 340 nm resulting from the conversion of NADH to NAD^+ was measured at 25 °C in ‘kinetic mode’ on a Spectramax© M5 Multimode plate reader. […] An alternative linked enzyme assay was developed to control for the potential inhibitory activity of ATP on human PFK (Supplementary Methods 2.3).
The mechanism of TbPFK inhibition was studied using a coupled enzyme assay in which production of ADP by TbPFK was coupled to the reaction of human M1 isoform pyruvate kinase (hPYK), which converts ADP and phosphoenolpyruvate (PEP) to ATP and pyruvate. The reaction is further coupled to lactate dehydrogenase (LDH), which converts pyruvate and NADH to lactate and NAD^+, respectively. NADH conversion was monitored by measuring changes in NADH absorbance.
A 2.5x ‘assay mix’ was made containing 4.8 mM PEP, 1.2 mM NADH , 20 U/ml PYK, 33 U/ml LDH, 0 to 3mM ATP in assay buffer (10 mM MgCl2, 100 mM KCl, 50 mM TEA, 10% glycerol, 0.005% Tween-20, pH 7.4). For measuring activity 40 µl of assay mix was plated in a clear, non-binding 96 well plate (Greiner Bio-One cat. no. 655901) with 4-10 µl of the PFK sample (typically a 0.1 mg/ml stock) to be tested and 40 – 46 µl of assay buffer. The reaction was started upon addition of 10 µl of up to 6 mM F6P (0.6 mM final concentration). Absorbance at 340 nm was read at 20 second intervals for 10 minutes at 25 °C in ‘kinetic mode’ on a Spectramax© M5 Multimode plate reader. The gradient of the linear section of raw plots of NADH absorbance over time were used to obtain initial velocities.

SMILES: CN(C)CCn1ccc2c(ccn2Cc2ccc(Cl)c(Cl)c2)c1=O [CTCB-405, 1-[(3,4-Dichlorophenyl)methyl]-5-[2-(dimethylamino)ethyl] pyrrolo[3,2-c]pyridin-4-one]
- mode of inhibition with respect to ATP and F6P: not competitive with either ATP or F6P; also recorded: not competitive with either substrate
- Vmax, Michaelis Menten best fit versus ATP (CTCB-405 at 0.5 x IC50): 36.5 µmol/min/mg
- Vmax, Michaelis Menten best fit versus F6P (CTCB-405 at 0.5 x IC50): 38.7 µmol/min/mg
- Vmax, Michaelis Menten best fit versus ATP (CTCB-405 at 1x IC50): 33.8 µmol/min/mg
- Vmax, Michaelis Menten best fit versus F6P (CTCB-405 at 1x IC50): 33.6 µmol/min/mg
- Vmax, Michaelis Menten best fit versus ATP (CTCB-405 at 2 x IC50): 26.6 µmol/min/mg
- Vmax, Michaelis Menten best fit versus F6P (CTCB-405 at 2 x IC50): 34.0 µmol/min/mg
